BindingDB's records for doi:10.1021/jm960597m (Division of Warner Lambert, 1997)

Assay: Inhibition of [3H]thymidine uptake by Dopamine receptor D2

EC50: 2.8 nM
Structure (SMILES): c1ccc(N2CCN(CC[C@H]3CC[C@H](c4c[nH]c5ccccc54)CC3)CC2)nc1 [3-{4-[2-(4-Pyridin-2-yl-piperazin-1-yl)-ethyl]-cyclohexyl}-1H-indole]
